According to PubChem BioAssay AID248 (DTP/NCI, 2004):
Several values for one entry are separate records, joined by “and”; a condition that tells them apart may be missing. Equal values may be shown once. Toxic doses and inconclusive results are not listed.

Tested on: L1210 leukemia ip in BDF1 mice, survival T/C
Test: NCI In Vivo Anticancer Drug Screen. Data for tumor model L1210 Leukemia (intraperitoneal) in B6D2F1 (BDF1) mice
Settings: higher = longer survival
How it was run: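 Ratio derived from survival: compound-dosed mice over vehicle-dosed mice, all bearing a transplantable tumor.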

[1] = endpoint: mean survival time, dose: 100.0 mg/kg/injection, schedule: Q04DX003 (ip), vehicle: saline
[2] = endpoint: mean survival time, dose: 100.0 mg/kg/injection, schedule: Q01DX001 (ip), vehicle: Klucel (hydroxypropylcellulose) (HPC)
[3] = endpoint: mean survival time, dose: 200.0 mg/kg/injection, schedule: Q01DX001 (ip), vehicle: Klucel (hydroxypropylcellulose) (HPC)
[4] = endpoint: mean survival time, dose: 400.0 mg/kg/injection, schedule: Q01DX001 (ip), vehicle: Klucel (hydroxypropylcellulose) (HPC)

Nc1nc(SCc2ccccc2)c2ncn(CCCl)c2n1
T/C (endpoint: mean survival time, dose: 5.0 mg/kg/injection, schedule: Q01DX001 (ip), vehicle: carboxymethylcellulose (CMC)): 107 % of control | T/C (endpoint: mean survival time, dose: 10.0 mg/kg/injection, schedule: Q01DX001 (ip), vehicle: carboxymethylcellulose (CMC)): 107 % of control | T/C (endpoint: mean survival time, dose: 13.0 mg/kg/injection, schedule: Q01DX Z (ip), vehicle: carboxymethylcellulose (CMC)): 105 % of control | T/C (endpoint: mean survival time, dose: 20.0 mg/kg/injection, schedule: Q01DX001 (ip), vehicle: carboxymethylcellulose (CMC)): 107 % of control | T/C (endpoint: mean survival time, dose: 30.0 mg/kg/injection, schedule: Q01DX Z (ip), vehicle: carboxymethylcellulose (CMC)): 150 % of control | T/C (endpoint: mean survival time, dose: 40.0 mg/kg/injection, schedule: Q01DX001 (ip), vehicle: carboxymethylcellulose (CMC)): 120 % of control | T/C (endpoint: mean survival time, dose: 67.0 mg/kg/injection, schedule: Q01DX Z (ip), vehicle: carboxymethylcellulose (CMC)): 116 % of control | T/C (endpoint: mean survival time, dose: 80.0 mg/kg/injection, schedule: Q01DX001 (ip), vehicle: carboxymethylcellulose (CMC)): 122 % of control | T/C (endpoint: mean survival time, dose: 100.0 mg/kg/injection, schedule: Q01DX Z (ip), vehicle: carboxymethylcellulose (CMC)): 101 % of control | T/C (endpoint: mean survival time, dose: 150.0 mg/kg/injection, schedule: Q01DX Z (ip), vehicle: carboxymethylcellulose (CMC)): 90 % of control | T/C (endpoint: mean survival time, dose: 320.0 mg/kg/injection, schedule: Q01DX001 (ip), vehicle: carboxymethylcellulose (CMC)): 116 % of control

COc1cc(C(=O)N(C)C)nc(OC)n1
T/C [1]: 106 % of control | T/C (endpoint: mean survival time, dose: 200.0 mg/kg/injection, schedule: Q04DX003 (ip), vehicle: saline): 108 % of control | T/C (endpoint: mean survival time, dose: 400.0 mg/kg/injection, schedule: Q04DX003 (ip), vehicle: saline): 106 % of control

CCCCC(/C=N\NC(=O)c1ccc[n+](C)c1)CC (stereo unspecified)
T/C (endpoint: mean survival time, dose: 50.0 mg/kg/injection, schedule: Q01DX009 (ip), vehicle: saline): 103 % of control | T/C (endpoint: mean survival time, dose: 100.0 mg/kg/injection, schedule: Q01DX009 (ip), vehicle: saline): 100 % of control

COC(=O)/C=C(\C)Nc1cccc([N+](=O)[O-])c1
T/C (endpoint: mean survival time, dose: 100.0 mg/kg/injection, schedule: Q01DX001 (ip), vehicle: other): 94 % of control

Cc1ccc(S(=O)(=O)OC2CN(S(C)(=O)=O)CC(OS(=O)(=O)c3ccc(C)cc3)CN(S(C)(=O)=O)C2)cc1 (stereo unspecified)
T/C (endpoint: mean survival time, dose: 25.0 mg/kg/injection, schedule: Q04DX002 (ip), vehicle: Klucel (hydroxypropylcellulose) (HPC)): 89 % of control | T/C (endpoint: mean survival time, dose: 50.0 mg/kg/injection, schedule: Q04DX002 (ip), vehicle: Klucel (hydroxypropylcellulose) (HPC)): 103 % of control | T/C (endpoint: mean survival time, dose: 100.0 mg/kg/injection, schedule: Q04DX002 (ip), vehicle: Klucel (hydroxypropylcellulose) (HPC)): 92 % of control

CC(=O)OCC1OC(N2C(=O)/C(=C/c3cccnc3)SC2=S)C(OC(C)=O)C(OC(C)=O)C1OC(C)=O (stereo unspecified)
T/C (endpoint: mean survival time, dose: 25.0 mg/kg/injection, schedule: Q01DX005 (ip), vehicle: other): 94 % of control | T/C (endpoint: mean survival time, dose: 50.0 mg/kg/injection, schedule: Q01DX005 (ip), vehicle: other): 96 % of control | T/C (endpoint: mean survival time, dose: 100.0 mg/kg/injection, schedule: Q01DX005 (ip), vehicle: other): 96 % of control | T/C (endpoint: mean survival time, dose: 200.0 mg/kg/injection, schedule: Q01DX005 (ip), vehicle: other): 105 % of control

CC1CC(=O)C=C(c2ccccc2)O1 (stereo unspecified)
T/C (endpoint: mean survival time, dose: 75.0 mg/kg/injection, schedule: Q01DX009 (ip), vehicle: Klucel (hydroxypropylcellulose) (HPC)): 101 % of control | T/C (endpoint: mean survival time, dose: 150.0 mg/kg/injection, schedule: Q01DX009 (ip), vehicle: Klucel (hydroxypropylcellulose) (HPC)): 101 % of control

NC(=O)NC1CCCCCCC1
T/C (endpoint: mean survival time, dose: 100.0 mg/kg/injection, schedule: Q04DX003 (ip), vehicle: saline with Tween-80): 98 % of control | T/C (endpoint: mean survival time, dose: 200.0 mg/kg/injection, schedule: Q04DX003 (ip), vehicle: saline with Tween-80): 89 % of control | T/C (endpoint: mean survival time, dose: 400.0 mg/kg/injection, schedule: Q04DX003 (ip), vehicle: saline with Tween-80): 95 % of control

Cc1ccc(NC(=O)N(C)N=O)cc1
T/C (endpoint: mean survival time, dose: 17.7 mg/kg/injection, schedule: Q01DX009 (ip), vehicle: carboxymethylcellulose (CMC)): 118 % of control | T/C (endpoint: mean survival time, dose: 26.6 mg/kg/injection, schedule: Q01DX009 (ip), vehicle: carboxymethylcellulose (CMC)): 117 % of control | T/C (endpoint: mean survival time, dose: 40.0 mg/kg/injection, schedule: Q01DX009 (ip), vehicle: carboxymethylcellulose (CMC)): 120 % of control | T/C (endpoint: mean survival time, dose: 50.0 mg/kg/injection, schedule: Q01DX001 (ip), vehicle: Klucel (hydroxypropylcellulose) (HPC)): 119 % of control | T/C (endpoint: mean survival time, dose: 60.0 mg/kg/injection, schedule: Q01DX009 (ip), vehicle: carboxymethylcellulose (CMC)): 88 % of control | T/C (endpoint: mean survival time, dose: 89.0 mg/kg/injection, schedule: Q01DX001 (ip), vehicle: carboxymethylcellulose (CMC)): 107 % of control | T/C [2]: 111 % of control | T/C (endpoint: mean survival time, dose: 100.0 mg/kg/injection, schedule: Q01DX001 (ip), vehicle: carboxymethylcellulose (CMC)): 116 % of control | T/C (endpoint: mean survival time, dose: 133.0 mg/kg/injection, schedule: Q01DX001 (ip), vehicle: carboxymethylcellulose (CMC)): 122 % of control | T/C [3]: 114 % of control | T/C [4]: 114 % of control

COc1cc([N+](=O)[O-])ccc1C(=O)NC(CCC(=O)O)C(=O)O (stereo unspecified)
T/C [2]: 95 % of control | T/C [3]: 106 % of control | T/C [4]: 100 % of control

CC(=O)O[C@]1(C(C)=O)CC[C@H]2[C@@H]3C[C@H](C)C4=CC(=O)C=C[C@]4(C)[C@@]3(F)[C@@H](O)C[C@@]21C
T/C (endpoint: mean survival time, dose: 12.5 mg/kg/injection, schedule: Q01DX010 (sc), vehicle: steriod suspending solution): 96 % of control and 98 % of control | T/C (endpoint: mean survival time, dose: 25.0 mg/kg/injection, schedule: Q01DX009 (sc), vehicle: steriod suspending solution): 103 % of control and 104 % of control and 111 % of control | T/C (endpoint: mean survival time, dose: 25.0 mg/kg/injection, schedule: Q01DX010 (sc), vehicle: steriod suspending solution): 98 % of control and 101 % of control | T/C (endpoint: mean survival time, dose: 50.0 mg/kg/injection, schedule: Q01DX009 (sc), vehicle: steriod suspending solution): 93 % of control and 95 % of control and 111 % of control | T/C (endpoint: mean survival time, dose: 50.0 mg/kg/injection, schedule: Q01DX010 (sc), vehicle: steriod suspending solution): 95 % of control and 107 % of control | T/C (endpoint: mean survival time, dose: 100.0 mg/kg/injection, schedule: Q01DX009 (sc), vehicle: steriod suspending solution): 98 % of control (2×) and 111 % of control | T/C (endpoint: mean survival time, dose: 100.0 mg/kg/injection, schedule: Q01DX010 (sc), vehicle: steriod suspending solution): 98 % of control and 107 % of control | T/C (endpoint: mean survival time, dose: 200.0 mg/kg/injection, schedule: Q01DX009 (sc), vehicle: steriod suspending solution): 95 % of control (2×) and 111 % of control | T/C (endpoint: median survival time, dose: 25.0 mg/kg/injection, schedule: Q01DX009 (sc), vehicle: steriod suspending solution): 106 % of control | T/C (endpoint: median survival time, dose: 50.0 mg/kg/injection, schedule: Q01DX009 (sc), vehicle: steriod suspending solution): 100 % of control | T/C (endpoint: median survival time, dose: 100.0 mg/kg/injection, schedule: Q01DX009 (sc), vehicle: steriod suspending solution): 100 % of control | T/C (endpoint: median survival time, dose: 200.0 mg/kg/injection, schedule: Q01DX009 (sc), vehicle: steriod suspending solution): 100 % of control

[N-]=[N+]=CC(=O)NCC(=O)NO
T/C (endpoint: mean survival time, dose: 50.0 mg/kg/injection, schedule: Q01DX001 (ip), vehicle: water): 117 % of control | T/C (endpoint: mean survival time, dose: 75.0 mg/kg/injection, schedule: Q01DX009 (ip), vehicle: water): 95 % of control | T/C (endpoint: mean survival time, dose: 100.0 mg/kg/injection, schedule: Q01DX001 (ip), vehicle: water): 96 % of control | T/C (endpoint: mean survival time, dose: 100.0 mg/kg/injection, schedule: Q01DX009 (ip), vehicle: other): 100 % of control | T/C (endpoint: mean survival time, dose: 150.0 mg/kg/injection, schedule: Q01DX009 (ip), vehicle: water): 120 % of control | T/C (endpoint: mean survival time, dose: 180.0 mg/kg/injection, schedule: Q01DX001 (ip), vehicle: water): 116 % of control | T/C (endpoint: mean survival time, dose: 200.0 mg/kg/injection, schedule: Q01DX001 (ip), vehicle: water): 102 % of control | T/C (endpoint: mean survival time, dose: 200.0 mg/kg/injection, schedule: Q01DX009 (ip), vehicle: other): 101 % of control | T/C (endpoint: mean survival time, dose: 270.0 mg/kg/injection, schedule: Q01DX001 (ip), vehicle: water): 110 % of control | T/C (endpoint: mean survival time, dose: 270.0 mg/kg/injection, schedule: Q01DX009 (ip), vehicle: water): 155 % of control | T/C (endpoint: mean survival time, dose: 300.0 mg/kg/injection, schedule: Q01DX009 (ip), vehicle: other): 111 % of control | T/C (endpoint: mean survival time, dose: 300.0 mg/kg/injection, schedule: Q01DX009 (ip), vehicle: water): 123 % of control | T/C (endpoint: mean survival time, dose: 400.0 mg/kg/injection, schedule: Q01DX001 (ip), vehicle: water): 108 % of control and 111 % of control and 113 % of control | T/C (endpoint: mean survival time, dose: 450.0 mg/kg/injection, schedule: Q01DX008 (ip), vehicle: water): 150 % of control | T/C (endpoint: mean survival time, dose: 500.0 mg/kg/injection, schedule: Q01DX009 (ip), vehicle: other): 97 % of control | T/C (endpoint: mean survival time, dose: 600.0 mg/kg/injection, schedule: Q01DX009 (ip), vehicle: water): 91 % of control | T/C (endpoint: mean survival time, dose: 1600.0 mg/kg/injection, schedule: Q01DX001 (ip), vehicle: water): 90 % of control

Cc1ccc([N+](=O)[O-])cc1O
T/C (endpoint: mean survival time, dose: 25.0 mg/kg/injection, schedule: Q04DX003 (ip), vehicle: saline): 98 % of control | T/C (endpoint: mean survival time, dose: 50.0 mg/kg/injection, schedule: Q04DX003 (ip), vehicle: saline): 102 % of control | T/C (endpoint: mean survival time, dose: 100.0 mg/kg/injection, schedule: Q01DX001 (ip), vehicle: saline): 97 % of control | T/C [1]: 97 % of control
